According to the NIST ThermoML archive (doi:10.1016/j.fluid.2014.10.002):
Values joined by “and” are separate entries in the source; they are usually repeats but may differ in a detail not shown here. Equal entries are not always repeated.

Details: Liquid

CCCCC(CC)COC(=O)c1ccc(C(=O)OCC(CC)CCCC)c(C(=O)OCC(CC)CCCC)c1 (stereo unspecified) [tris(2-ethylhexyl) trimellitate]
Details | viscosity
303.15 K, 980 kPa, Vibrating wire viscometry | 158.5 mPa·s
303.15 K, 1030 kPa, Vibrating wire viscometry | 158.4 mPa·s
303.15 K, 1080 kPa, Vibrating wire viscometry | 158.9 mPa·s
303.15 K, 15060 kPa, Vibrating wire viscometry | 220.6 mPa·s and 220.2 mPa·s
303.15 K, 29810 kPa, Vibrating wire viscometry | 302.4 mPa·s and 302.1 mPa·s
303.15 K, 29820 kPa, Vibrating wire viscometry | 303.1 mPa·s
303.16 K, 2820 kPa, Vibrating wire viscometry | 165 mPa·s
303.16 K, 2850 kPa, Vibrating wire viscometry | 165.1 mPa·s and 165.7 mPa·s
303.16 K, 5120 kPa, Vibrating wire viscometry | 174.3 mPa·s
303.16 K, 5130 kPa, Vibrating wire viscometry | 173.4 mPa·s and 173.8 mPa·s and 173.6 mPa·s
303.16 K, 7680 kPa, Vibrating wire viscometry | 183.8 mPa·s [middle of 4 runs]
303.16 K, 7690 kPa, Vibrating wire viscometry | 183.8 mPa·s
303.16 K, 9830 kPa, Vibrating wire viscometry | 193.9 mPa·s
303.16 K, 9850 kPa, Vibrating wire viscometry | 193.9 mPa·s
303.16 K, 9880 kPa, Vibrating wire viscometry | 194.1 mPa·s
303.16 K, 19950 kPa, Vibrating wire viscometry | 242.6 mPa·s
303.16 K, 19980 kPa, Vibrating wire viscometry | 242.8 mPa·s
303.16 K, 19990 kPa, Vibrating wire viscometry | 242.8 mPa·s
303.16 K, 20010 kPa, Vibrating wire viscometry | 243.8 mPa·s
303.16 K, 29820 kPa, Vibrating wire viscometry | 303.5 mPa·s and 303.8 mPa·s
303.16 K, 29830 kPa, Vibrating wire viscometry | 302.3 mPa·s
303.16 K, 40160 kPa, Vibrating wire viscometry | 369.8 mPa·s
303.16 K, 40170 kPa, Vibrating wire viscometry | 370.5 mPa·s and 373.1 mPa·s and 370.9 mPa·s
303.16 K, 40180 kPa, Vibrating wire viscometry | 373.2 mPa·s and 369.5 mPa·s
303.17 K, 101.33 kPa, Capillary tube (Ostwald / Ubbelohde) method | 153.9 mPa·s
303.17 K, 50390 kPa, Vibrating wire viscometry | 462.2 mPa·s
303.17 K, 50400 kPa, Vibrating wire viscometry | 462.1 mPa·s [middle of 4 runs]
313.16 K, 1220 kPa, Vibrating wire viscometry | 87.78 mPa·s
313.16 K, 1230 kPa, Vibrating wire viscometry | 87.98 mPa·s
313.16 K, 1310 kPa, Vibrating wire viscometry | 88.02 mPa·s
313.16 K, 1320 kPa, Vibrating wire viscometry | 87.62 mPa·s and 87.55 mPa·s
313.16 K, 2780 kPa, Vibrating wire viscometry | 90.52 mPa·s
313.16 K, 5160 kPa, Vibrating wire viscometry | 96.14 mPa·s
313.16 K, 5170 kPa, Vibrating wire viscometry | 96.24 mPa·s
313.16 K, 5190 kPa, Vibrating wire viscometry | 96.26 mPa·s
313.16 K, 5210 kPa, Vibrating wire viscometry | 95.79 mPa·s
313.16 K, 7710 kPa, Vibrating wire viscometry | 101.6 mPa·s
313.16 K, 7780 kPa, Vibrating wire viscometry | 101.7 mPa·s and 101.9 mPa·s and 101.4 mPa·s
313.16 K, 7790 kPa, Vibrating wire viscometry | 101.3 mPa·s
313.16 K, 14800 kPa, Vibrating wire viscometry | 117.6 mPa·s
313.16 K, 14820 kPa, Vibrating wire viscometry | 117.4 mPa·s
313.16 K, 20040 kPa, Vibrating wire viscometry | 132.4 mPa·s
313.16 K, 20050 kPa, Vibrating wire viscometry | 131.6 mPa·s
313.16 K, 20060 kPa, Vibrating wire viscometry | 131.6 mPa·s
313.16 K, 29930 kPa, Vibrating wire viscometry | 159.8 mPa·s
313.16 K, 29970 kPa, Vibrating wire viscometry | 160.2 mPa·s
313.16 K, 29980 kPa, Vibrating wire viscometry | 159.8 mPa·s
313.16 K, 39960 kPa, Vibrating wire viscometry | 197.4 mPa·s
313.16 K, 39980 kPa, Vibrating wire viscometry | 197 mPa·s
313.16 K, 40000 kPa, Vibrating wire viscometry | 196.9 mPa·s
313.16 K, 40020 kPa, Vibrating wire viscometry | 196.6 mPa·s
313.16 K, 50020 kPa, Vibrating wire viscometry | 239.1 mPa·s
313.16 K, 50040 kPa, Vibrating wire viscometry | 240.3 mPa·s and 239.4 mPa·s
313.16 K, 50070 kPa, Vibrating wire viscometry | 239.5 mPa·s
313.16 K, 50080 kPa, Vibrating wire viscometry | 239.6 mPa·s
313.16 K, 50090 kPa, Vibrating wire viscometry | 239.3 mPa·s
313.16 K, 65420 kPa, Vibrating wire viscometry | 317.8 mPa·s
313.16 K, 65430 kPa, Vibrating wire viscometry | 319 mPa·s
313.16 K, 65440 kPa, Vibrating wire viscometry | 319.8 mPa·s
313.16 K, 65470 kPa, Vibrating wire viscometry | 317.5 mPa·s
313.17 K, 2780 kPa, Vibrating wire viscometry | 90.59 mPa·s and 90.6 mPa·s
313.17 K, 2790 kPa, Vibrating wire viscometry | 90.29 mPa·s and 90.54 mPa·s
313.17 K, 2800 kPa, Vibrating wire viscometry | 90.3 mPa·s
313.17 K, 5170 kPa, Vibrating wire viscometry | 95.9 mPa·s
313.17 K, 14770 kPa, Vibrating wire viscometry | 117 mPa·s
313.17 K, 20060 kPa, Vibrating wire viscometry | 132 mPa·s
313.17 K, 29940 kPa, Vibrating wire viscometry | 159.5 mPa·s
313.18 K, 101.33 kPa, Capillary tube (Ostwald / Ubbelohde) method | 86.37 mPa·s
323.1 K, 101.33 kPa, Capillary tube (Ostwald / Ubbelohde) method | 52.41 mPa·s
328.06 K, 101.33 kPa, Capillary tube (Ostwald / Ubbelohde) method | 41.71 mPa·s
328.15 K, 2490 kPa, Vibrating wire viscometry | 43.18 mPa·s
328.15 K, 2520 kPa, Vibrating wire viscometry | 43.29 mPa·s
328.15 K, 5120 kPa, Vibrating wire viscometry | 45.81 mPa·s
328.15 K, 7540 kPa, Vibrating wire viscometry | 47.59 mPa·s
328.15 K, 7550 kPa, Vibrating wire viscometry | 47.68 mPa·s
328.15 K, 7560 kPa, Vibrating wire viscometry | 47.66 mPa·s
328.15 K, 10410 kPa, Vibrating wire viscometry | 50.91 mPa·s
328.15 K, 10430 kPa, Vibrating wire viscometry | 50.81 mPa·s
328.15 K, 15140 kPa, Vibrating wire viscometry | 55.66 mPa·s
328.15 K, 20020 kPa, Vibrating wire viscometry | 60.75 mPa·s
328.15 K, 20040 kPa, Vibrating wire viscometry | 60.75 mPa·s and 60.87 mPa·s
328.15 K, 30400 kPa, Vibrating wire viscometry | 74.44 mPa·s
328.15 K, 30410 kPa, Vibrating wire viscometry | 74.65 mPa·s
328.15 K, 30420 kPa, Vibrating wire viscometry | 74.52 mPa·s
328.15 K, 40610 kPa, Vibrating wire viscometry | 89.47 mPa·s
328.15 K, 50030 kPa, Vibrating wire viscometry | 105.8 mPa·s and 105.5 mPa·s and 105.9 mPa·s
328.15 K, 50040 kPa, Vibrating wire viscometry | 105.5 mPa·s and 105.7 mPa·s
328.15 K, 50050 kPa, Vibrating wire viscometry | 105.7 mPa·s
328.15 K, 50070 kPa, Vibrating wire viscometry | 105.9 mPa·s
328.15 K, 50080 kPa, Vibrating wire viscometry | 105.8 mPa·s
328.15 K, 65530 kPa, Vibrating wire viscometry | 139.6 mPa·s
328.16 K, 1000 kPa, Vibrating wire viscometry | 41.66 mPa·s
328.16 K, 1030 kPa, Vibrating wire viscometry | 41.61 mPa·s and 41.82 mPa·s
328.16 K, 1050 kPa, Vibrating wire viscometry | 41.76 mPa·s
328.16 K, 2510 kPa, Vibrating wire viscometry | 43.2 mPa·s
328.16 K, 2520 kPa, Vibrating wire viscometry | 43.23 mPa·s
328.16 K, 2530 kPa, Vibrating wire viscometry | 43.31 mPa·s
328.16 K, 5100 kPa, Vibrating wire viscometry | 45.73 mPa·s and 45.69 mPa·s
328.16 K, 5130 kPa, Vibrating wire viscometry | 45.73 mPa·s and 45.72 mPa·s
328.16 K, 5140 kPa, Vibrating wire viscometry | 45.67 mPa·s
328.16 K, 7580 kPa, Vibrating wire viscometry | 47.76 mPa·s
328.16 K, 10390 kPa, Vibrating wire viscometry | 50.78 mPa·s
328.16 K, 10400 kPa, Vibrating wire viscometry | 50.84 mPa·s and 50.82 mPa·s
328.16 K, 10410 kPa, Vibrating wire viscometry | 50.74 mPa·s
328.16 K, 15100 kPa, Vibrating wire viscometry | 55.71 mPa·s
328.16 K, 15110 kPa, Vibrating wire viscometry | 55.52 mPa·s
328.16 K, 15130 kPa, Vibrating wire viscometry | 55.62 mPa·s
328.16 K, 20020 kPa, Vibrating wire viscometry | 60.83 mPa·s
328.16 K, 20030 kPa, Vibrating wire viscometry | 60.93 mPa·s
328.16 K, 30420 kPa, Vibrating wire viscometry | 74.4 mPa·s
328.16 K, 40570 kPa, Vibrating wire viscometry | 89.15 mPa·s
328.16 K, 40590 kPa, Vibrating wire viscometry | 89.1 mPa·s
328.16 K, 40620 kPa, Vibrating wire viscometry | 89.25 mPa·s
328.16 K, 50040 kPa, Vibrating wire viscometry | 105.5 mPa·s
328.16 K, 65490 kPa, Vibrating wire viscometry | 139.6 mPa·s
343.14 K, 1080 kPa, Vibrating wire viscometry | 22.75 mPa·s
343.14 K, 10140 kPa, Vibrating wire viscometry | 27.1 mPa·s
343.14 K, 10150 kPa, Vibrating wire viscometry | 27.11 mPa·s and 27.07 mPa·s
343.14 K, 19890 kPa, Vibrating wire viscometry | 32.41 mPa·s
343.14 K, 19900 kPa, Vibrating wire viscometry | 32.35 mPa·s and 32.43 mPa·s
343.14 K, 19910 kPa, Vibrating wire viscometry | 32.45 mPa·s
343.14 K, 19920 kPa, Vibrating wire viscometry | 32.38 mPa·s
343.14 K, 19930 kPa, Vibrating wire viscometry | 32.41 mPa·s
343.14 K, 30240 kPa, Vibrating wire viscometry | 38.59 mPa·s
343.14 K, 30250 kPa, Vibrating wire viscometry | 38.67 mPa·s and 38.63 mPa·s and 38.6 mPa·s
343.14 K, 30260 kPa, Vibrating wire viscometry | 38.59 mPa·s
343.14 K, 40260 kPa, Vibrating wire viscometry | 45.94 mPa·s
343.14 K, 40270 kPa, Vibrating wire viscometry | 45.89 mPa·s and 45.83 mPa·s
343.14 K, 40280 kPa, Vibrating wire viscometry | 45.91 mPa·s
343.14 K, 49840 kPa, Vibrating wire viscometry | 53.72 mPa·s and 53.82 mPa·s
343.14 K, 49860 kPa, Vibrating wire viscometry | 53.79 mPa·s
